“Also recorded” adds a separate entry of the source. Like-named read-outs stand apart in the source and are kept apart here.
Columns and labels:
[1] = parameters: method as in PMID 23813446; conditions: mice; cited from earlier work
[2] = parameters: method as in PMID 23813446; conditions: non-human primates; cited from earlier work
[3] = test system: tumor necrosis factor α (TNFα); test: Plasma TNFα ELISA; parameters: species or system human; conditions: in vivo
Method: (§1) cIAP-1 levels were measured in tumor tissue and surrogate tissue as available. Peripheral blood mononuclear cells (PBMCs) were analyzed for DEBIO1143-induced cIAP-1 degradation. Plasma native cytokeratin-18 ([…]) or caspase-3 generated cytokeratin-18 fragments (M30), interleukin 8 (IL8), chemokine ligand 2 (CCL2, MCP1), and tumor necrosis factor α (TNFα) were measured by ELISA as markers of epithelial cell death and inflammation on days 1 (predose, 1, 3, 6, and 12 h postdose), 2, and 5. […] For the detection of cIAP-1 in paraffin-embedded human tissue, a validated immunohistochemical (IHC) assay was used. DEBIO1143-induced cIAP-1 degradation was measured in PBMCs using Western blot. Plasma biomarkers were measured through commercial ELISAs. All laboratory analyses were performed by MPI Research, Inc. (PK) and Mosaic Laboratory, LLC (PD).

[4] = parameters: method as in PMID 23813446; conditions: dogs; cited from earlier work
cIAP-1 [5] = target: T1, cIAP-1 (Homo sapiens, UniProt Q13490); test: cIAP1 degradation in PBMCs, Western blot; format: in vivo
T1 construct: endogenous in cells; host or cells: peripheral blood mononuclear cells (PBMCs) of patients
T1 sequence (Q13490 whole entry): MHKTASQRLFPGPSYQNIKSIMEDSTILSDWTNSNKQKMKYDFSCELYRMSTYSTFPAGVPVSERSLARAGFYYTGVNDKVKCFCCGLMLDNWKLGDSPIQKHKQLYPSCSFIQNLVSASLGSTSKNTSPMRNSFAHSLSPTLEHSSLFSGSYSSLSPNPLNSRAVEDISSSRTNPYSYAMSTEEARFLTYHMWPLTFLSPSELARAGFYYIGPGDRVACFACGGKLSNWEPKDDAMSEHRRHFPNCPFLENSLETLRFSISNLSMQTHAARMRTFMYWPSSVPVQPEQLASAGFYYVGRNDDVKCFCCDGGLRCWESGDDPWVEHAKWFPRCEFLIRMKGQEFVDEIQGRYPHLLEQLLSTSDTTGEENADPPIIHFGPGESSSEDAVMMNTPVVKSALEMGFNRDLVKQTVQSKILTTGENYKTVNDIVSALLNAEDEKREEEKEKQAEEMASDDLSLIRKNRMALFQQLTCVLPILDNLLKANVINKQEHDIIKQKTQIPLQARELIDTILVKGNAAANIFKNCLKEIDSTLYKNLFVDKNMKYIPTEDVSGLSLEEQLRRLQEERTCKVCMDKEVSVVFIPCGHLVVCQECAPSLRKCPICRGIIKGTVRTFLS
Method: Pharmacokinetic samples were taken from all patients on day 1 (predose, 0.5, 1, 2, 3, 4, 6, 8, 12, 18 h postdose) and on day 5 (predose, 0.5, 1, 2, 3, 4, 6, 8 h postdose) of the first cycle. In addition, for exploratory PD analysis of IAP inhibition and activation of apoptosis, optional skin and tumor biopsies were taken from consenting patients on days 1 (predose) and 5 and blood samples on day 1 (predose, 1, 3, 6, 8, 12 h postdose), day 2 (predose), and day 5 (3 h postdose).
cIAP-1 levels were measured in tumor tissue and surrogate tissue as available. Peripheral blood mononuclear cells (PBMCs) were analyzed for DEBIO1143-induced cIAP-1 degradation. Plasma native cytokeratin-18 (M65) or caspase-3 generated cytokeratin-18 fragments (M30), interleukin 8 (IL8), chemokine ligand 2 (CCL2, MCP1), and tumor necrosis factor α (TNFα) were measured by ELISA as markers of epithelial cell death and inflammation on days 1 (predose, 1, 3, 6, and 12 h postdose), 2, and 5.
For the detection of cIAP-1 in paraffin-embedded human tissue, a validated immunohistochemical (IHC) assay was used. DEBIO1143-induced cIAP-1 degradation was measured in PBMCs using Western blot. Plasma biomarkers were measured through commercial ELISAs. All laboratory analyses were performed by MPI Research, Inc. (PK) and Mosaic Laboratory, LLC (PD).

cIAP-1 [6] = test system: cIAP-1; parameters: method as in PMID 21443232; conditions: cited from earlier work
[7] = test system: multiple mouse cancer models; conditions: cited from earlier work
[8] = test system: caspase-3 generated cytokeratin-18 fragments (M30); test: Plasma M30 ELISA; format: in vivo, human; conditions: day 5, p < 0.0033
Method: as §1

xenograft tumors = conditions: cited from earlier work
[9] = test system: various human cancer cell lines; parameters: method as in PMID 21264751, PMID 22669575; conditions: in vitro; cited from earlier work

SMILES: CN[C@@H](C)C(=O)N[C@H]1CN(C(=O)CC(C)C)CC[C@H]2CC[C@@H](C(=O)NC(c3ccccc3)c3ccccc3)N2C1=O [DEBIO1143]
- Oral bioavailability [1]: good
- Oral bioavailability [2]: good
- Patients with detectable TNFα showing some increase postdose [3]: four out of five
- Oral bioavailability [4]: good
- cIAP1/Actin in PBMC, mean (SD) (cIAP-1 [5]; 120 mg, 1h, N=1): 2% (0) % from baseline
- cIAP1/Actin in PBMC, median (range) (cIAP-1 [5]; 120 mg, 1h, N=1): 2 (2-2) % from baseline
- cIAP1/Actin in PBMC, mean (SD) (cIAP-1 [5]; 120 mg, 3h, N=1): 2% (0) % from baseline
- cIAP1/Actin in PBMC, median (range) (cIAP-1 [5]; 120 mg, 3h, N=1): 2 (2-2) % from baseline
- cIAP1/Actin in PBMC, mean (SD) (cIAP-1 [5]; 120 mg, 6h, N=1): 4% (0) % from baseline
- cIAP1/Actin in PBMC, median (range) (cIAP-1 [5]; 120 mg, 6h, N=1): 4 (4-4) % from baseline
- cIAP1/Actin in PBMC, mean (SD) (cIAP-1 [5]; 120 mg, 12h, N=1): 3% (0) % from baseline
- cIAP1/Actin in PBMC, median (range) (cIAP-1 [5]; 120 mg, 12h, N=1): 3 (3-3) % from baseline
- cIAP1/Actin in PBMC, mean (SD) (cIAP-1 [5]; 120 mg, 24h, N=1): 4% (0) % from baseline
- cIAP1/Actin in PBMC, median (range) (cIAP-1 [5]; 120 mg, 24h, N=1): 4 (4-4) % from baseline
- cIAP1/Actin in PBMC, mean (SD) (cIAP-1 [5]; 120 mg, 99h, N=1): 5% (0) % from baseline
- cIAP1/Actin in PBMC, median (range) (cIAP-1 [5]; 120 mg, 99h, N=1): 5 (5-5) % from baseline
- cIAP1/Actin in PBMC, mean (SD) (cIAP-1 [5]; 180 mg, 1h, N=6): 34% (31) % from baseline
- cIAP1/Actin in PBMC, median (range) (cIAP-1 [5]; 180 mg, 1h, N=6): 33 (0-78) % from baseline
- cIAP1/Actin in PBMC, mean (SD) (cIAP-1 [5]; 180 mg, 3h, N=6): 20% (25) % from baseline
- cIAP1/Actin in PBMC, median (range) (cIAP-1 [5]; 180 mg, 3h, N=6): 12 (3-68) % from baseline
- cIAP1/Actin in PBMC, mean (SD) (cIAP-1 [5]; 180 mg, 6h, N=7): 6% (8) % from baseline
- cIAP1/Actin in PBMC, median (range) (cIAP-1 [5]; 180 mg, 6h, N=7): 5 (0-24) % from baseline
- cIAP1/Actin in PBMC, mean (SD) (cIAP-1 [5]; 180 mg, 12h, N=3): 8% (7) % from baseline
- cIAP1/Actin in PBMC, median (range) (cIAP-1 [5]; 180 mg, 12h, N=3): 5 (4-16) % from baseline
- cIAP1/Actin in PBMC, mean (SD) (cIAP-1 [5]; 180 mg, 24h, N=6): 9% (10) % from baseline
- cIAP1/Actin in PBMC, median (range) (cIAP-1 [5]; 180 mg, 24h, N=6): 5 (3-29) % from baseline
- cIAP1/Actin in PBMC, mean (SD) (cIAP-1 [5]; 180 mg, 99h, N=6): 2% (2) % from baseline
- cIAP1/Actin in PBMC, median (range) (cIAP-1 [5]; 180 mg, 99h, N=6): 0 (0-5) % from baseline
- cIAP1/Actin in PBMC, mean (SD) (cIAP-1 [5]; 260 mg, 1h, N=3): 39% (33) % from baseline
- cIAP1/Actin in PBMC, median (range) (cIAP-1 [5]; 260 mg, 1h, N=3): 44 (4-70) % from baseline
- cIAP1/Actin in PBMC, mean (SD) (cIAP-1 [5]; 260 mg, 3h, N=3): 45% (50) % from baseline
- cIAP1/Actin in PBMC, median (range) (cIAP-1 [5]; 260 mg, 3h, N=3): 24 (9-103) % from baseline
- cIAP1/Actin in PBMC, mean (SD) (cIAP-1 [5]; 260 mg, 6h, N=3): 9% (4) % from baseline
- cIAP1/Actin in PBMC, median (range) (cIAP-1 [5]; 260 mg, 6h, N=3): 8 (5-13) % from baseline
- cIAP1/Actin in PBMC, mean (SD) (cIAP-1 [5]; 260 mg, 12h, N=2): 14% (5) % from baseline
- cIAP1/Actin in PBMC, median (range) (cIAP-1 [5]; 260 mg, 12h, N=2): 14 (10-17) % from baseline
- cIAP1/Actin in PBMC, mean (SD) (cIAP-1 [5]; 260 mg, 24h, N=3): 9% (7) % from baseline
- cIAP1/Actin in PBMC, median (range) (cIAP-1 [5]; 260 mg, 24h, N=3): 6 (5-16) % from baseline
- cIAP1/Actin in PBMC, mean (SD) (cIAP-1 [5]; 260 mg, 99h, N=3): 6% (3) % from baseline
- cIAP1/Actin in PBMC, median (range) (cIAP-1 [5]; 260 mg, 99h, N=3): 6 (3-8) % from baseline
- cIAP1/Actin in PBMC, mean (SD) (cIAP-1 [5]; 400 mg, 1h, N=1): 14% (0) % from baseline
- cIAP1/Actin in PBMC, median (range) (cIAP-1 [5]; 400 mg, 1h, N=1): 14 (14-14) % from baseline
- cIAP1/Actin in PBMC, mean (SD) (cIAP-1 [5]; 400 mg, 3h, N=2): 4% (2) % from baseline
- cIAP1/Actin in PBMC, median (range) (cIAP-1 [5]; 400 mg, 3h, N=2): 4 (3-6) % from baseline
- cIAP1/Actin in PBMC, mean (SD) (cIAP-1 [5]; 400 mg, 6h, N=2): 6% (4) % from baseline
- cIAP1/Actin in PBMC, median (range) (cIAP-1 [5]; 400 mg, 6h, N=2): 6 (2-9) % from baseline
- cIAP1/Actin in PBMC, mean (SD) (cIAP-1 [5]; 400 mg, 24h, N=2): 19% (26) % from baseline
- cIAP1/Actin in PBMC, median (range) (cIAP-1 [5]; 400 mg, 24h, N=2): 19 (0-37) % from baseline
- cIAP1/Actin in PBMC, mean (SD) (cIAP-1 [5]; 400 mg, 99h, N=2): 28% (31) % from baseline
- cIAP1/Actin in PBMC, median (range) (cIAP-1 [5]; 400 mg, 99h, N=2): 28 (6-51) % from baseline
- cIAP1/Actin in PBMC, mean (SD) (cIAP-1 [5]; 600 mg, 1h, N=3): 27% (9) % from baseline
- cIAP1/Actin in PBMC, median (range) (cIAP-1 [5]; 600 mg, 1h, N=3): 25 (20-38) % from baseline
- cIAP1/Actin in PBMC, mean (SD) (cIAP-1 [5]; 600 mg, 3h, N=3): 24% (11) % from baseline
- cIAP1/Actin in PBMC, median (range) (cIAP-1 [5]; 600 mg, 3h, N=3): 18 (17-36) % from baseline
- cIAP1/Actin in PBMC, mean (SD) (cIAP-1 [5]; 600 mg, 6h, N=3): 20% (11) % from baseline
- cIAP1/Actin in PBMC, median (range) (cIAP-1 [5]; 600 mg, 6h, N=3): 17 (11-33) % from baseline
- cIAP1/Actin in PBMC, mean (SD) (cIAP-1 [5]; 600 mg, 12h, N=1): 36% (0) % from baseline
- cIAP1/Actin in PBMC, median (range) (cIAP-1 [5]; 600 mg, 12h, N=1): 36 (36-36) % from baseline
- cIAP1/Actin in PBMC, mean (SD) (cIAP-1 [5]; 600 mg, 24h, N=3): 29% (36) % from baseline
- cIAP1/Actin in PBMC, median (range) (cIAP-1 [5]; 600 mg, 24h, N=3): 14 (3-70) % from baseline
- cIAP1/Actin in PBMC, mean (SD) (cIAP-1 [5]; 600 mg, 99h, N=2): 14% (19) % from baseline
- cIAP1/Actin in PBMC, median (range) (cIAP-1 [5]; 600 mg, 99h, N=2): 14 (0-28) % from baseline
- cIAP1/Actin in PBMC, mean (SD) (cIAP-1 [5]; 900 mg, 1h, N=5): 11% (8) % from baseline
- cIAP1/Actin in PBMC, median (range) (cIAP-1 [5]; 900 mg, 1h, N=5): 9 (2-24) % from baseline
- cIAP1/Actin in PBMC, mean (SD) (cIAP-1 [5]; 900 mg, 3h, N=4): 15% (23) % from baseline
- cIAP1/Actin in PBMC, median (range) (cIAP-1 [5]; 900 mg, 3h, N=4): 3 (3-49) % from baseline
- cIAP1/Actin in PBMC, mean (SD) (cIAP-1 [5]; 900 mg, 6h, N=4): 14% (13) % from baseline
- cIAP1/Actin in PBMC, median (range) (cIAP-1 [5]; 900 mg, 6h, N=4): 11 (1-32) % from baseline
- cIAP1/Actin in PBMC, mean (SD) (cIAP-1 [5]; 900 mg, 12h, N=2): 9% (2) % from baseline
- cIAP1/Actin in PBMC, median (range) (cIAP-1 [5]; 900 mg, 12h, N=2): 9 (7-10) % from baseline
- cIAP1/Actin in PBMC, mean (SD) (cIAP-1 [5]; 900 mg, 24h, N=4): 11% (18) % from baseline
- cIAP1/Actin in PBMC, median (range) (cIAP-1 [5]; 900 mg, 24h, N=4): 3 (0-38) % from baseline
- cIAP1/Actin in PBMC, mean (SD) (cIAP-1 [5]; 900 mg, 99h, N=4): 7% (6) % from baseline
- cIAP1/Actin in PBMC, median (range) (cIAP-1 [5]; 900 mg, 99h, N=4): 8 (0-14) % from baseline
- cIAP1 in PBMCs (Western blot) (cIAP-1 [5]; patients with detectable cIAP1, doses above 80 mg): decreased; also recorded: rapid and persistent cIAP1 degradation
- cIAP-1 degradation (cIAP-1 [6]): rapidly induced degradation of cIAP-1
- Effect on irradiation or chemotherapeutic agents [7]: enhance the antitumoral effects
- Plasma level of M30 [8]: increased significantly
- Apoptosis (xenograft tumors): apoptosis in xenograft tumors
- Cell growth [9]: inhibit cell growth
